Experimental data reported in patent publication US5332754A, “Naphthyloxazolidone derivatives” (Tanabe Seiyaku Co., Ltd., priority 1989, dated 1994).

Tests used:
cerebral MAO-A = assay: Inhibitory effect against cerebral MAO-A activity in mouse (oral administration); type: in vivo; details: 30 mg/kg oral, brain excised 45 minutes after administration, serotonin substrate
Method: (§1) A suspension (7mg protein/ml) of mitochondorial fraction obtained from cerebral tissue of rats in a conventional manner was used as a sample of enzyme, and serotonin was used as the substrate. of MAO-A. The MAO-A activity was estimated in terms of the amount of ammonia produced from serotonin by the enzymatic reaction.
(§2) Inhibitory effect against cerebral MAO-A and MAO-B activity in mouse.
(§3) A test compound (30 mg/kg) suspended in 0.5% aqueous sodium carboxymethylcellulose (CMC-Na) solution was administered orally to a group of 3 mice. The brain was excised 45 minutes after the administration. A control group was administered with the 0.5% aqueous CMC-Na solution alone.
(§4) The brain tissue was homogenized in 9 volumes of ice-cold distilled water and the homogenate was used as enzyme. MAO-A activity was estimated in the same manner as described in Experiment 1, whereas MAO-B activity was estimated in terms of the amount of benzaldehyde formed from benzylamine according to the method as described in "The Journal of Laboratory and Clinical Medicine, vol.

cerebral MAO-B = assay: Inhibitory effect against cerebral MAO-B activity in mouse (oral administration); type: in vivo; details: 30 mg/kg oral, brain excised 45 minutes after administration, benzylamine substrate
Method: as §2, §3, §4
Inhibitory rate of the test compound against the MAO-B activity are calculated according to the following equation. [formula] BA(T): the amount of benzaldehyde in the medicated group BA(C): the amount of benzaldehyde in the non-medicated control group

MAO-A = biological target: T1, MAO-A (Rattus norvegicus, UniProt P21396); assay: Inhibitory effect against MAO-A activity of cerebral mitochondrial fraction from rat (in vitro); type: biochemical; details: 10^-7 M test compound, serotonin substrate, read-out: Inhibitory rate (%) against MAO-A activity
T1 construct: mitochondorial fraction obtained from cerebral tissue of rats; from tissue; host or cells: rat cerebral tissue, mitochondrial fraction
T1 sequence (P21396 1-526): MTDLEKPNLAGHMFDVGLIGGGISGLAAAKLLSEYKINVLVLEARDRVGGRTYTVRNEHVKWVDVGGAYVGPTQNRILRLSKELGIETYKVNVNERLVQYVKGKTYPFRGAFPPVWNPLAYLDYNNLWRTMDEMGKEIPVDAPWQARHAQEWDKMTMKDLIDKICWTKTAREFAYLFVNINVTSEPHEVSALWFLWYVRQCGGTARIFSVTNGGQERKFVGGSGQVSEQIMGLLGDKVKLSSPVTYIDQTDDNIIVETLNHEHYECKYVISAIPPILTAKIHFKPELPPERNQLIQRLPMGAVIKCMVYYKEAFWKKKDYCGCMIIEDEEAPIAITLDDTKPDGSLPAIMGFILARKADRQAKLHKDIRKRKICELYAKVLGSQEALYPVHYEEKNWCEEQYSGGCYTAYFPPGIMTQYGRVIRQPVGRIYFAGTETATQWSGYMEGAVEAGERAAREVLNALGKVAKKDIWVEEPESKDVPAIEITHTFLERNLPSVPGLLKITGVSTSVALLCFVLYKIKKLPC
Method: Inhibitory effect against MAO-A activity of cerebral mitochondorian fraction from rat (in vitro)
as §1
Inhibitory rate of the test compounds (10^-7 M) against the MAO-A activity was calculated according to the following equation. [formula] NH3 (T): the amount of NH3 in test tube (addtion of test compound) NH3 (C): the amount of NH3 in control tube (no addition of test compound)

mice = assay: Acute oral toxicity in mice; type: in vivo, mouse; details: 2g/kg orally, 2 week-observation period
Source text: The naphthyloxazolidone derivative (I)or a pharmaceutically acceptable salt thereof has excellent reversible and selective MAO-A inhibitory activity. Accordingly, the compound (I) or a pharmaceutically acceptable salt thereof is useful as a therapeutic or prophylactic agent for depressive conditions such as depression, senile depression, abulia, axiety, insomnia, anorexia and the like in warm-blood animals including human beings. […] Moreover, the compound (I) or a pharmaceutically acceptable salt thereof is low in toxicity and have high safety as a pharmaceuticals. For example, when 3-(6-cyanoethoxy-2-naphthyl)-5-methoxymethyl-2-oxazolidone was administered orally to mice at a dose of 2g/kg, no mice died during 2 week-observation period.

Row | SMILES | inhibition at 0.1 µM (MAO-A) [%] | Inhibitory rate (%) MAO-A (cerebral MAO-A) [%] | Inhibitory rate (%) MAO-B (cerebral MAO-B) [%] | mortality (mice)
1 | COCC1CN(c2ccc3cc(OCCCC#N)ccc3c2)C(=O)O1 (centres unmarked) [O(CH2)3 CN] | 95.5 | 99.8 ± 16.1 | -1.9 ± 4.8 | 
2 | COCC1CN(c2ccc3cc(OCCC#N)ccc3c2)C(=O)O1 (centres unmarked) [O(CH2)2 CN, 3-(6-cyanoethoxy-2-naphthyl)-5-methoxymethyl-2-oxazolidone] | 98.1 | 109.2 ± 3.5 | -1.0 ± 2.3 | no mice died
3 | COCC1CN(c2ccc3ccccc3c2)C(=O)O1 (centres unmarked) [H, 5-methoxymethyl-3-(2-naphthyl)-2-oxazolidone] | 78.4 |  |  | 
4 | COCC1CN(c2ccc3cc(OCCCO)ccc3c2)C(=O)O1 (centres unmarked) [O(CH2)3 OH] | 91.7 | 57.1 ± 4.3 | 1.0 ± 0.8 | 
5 | C#CCN(C)Cc1ccccc1 [pargyline, reference compound] |  | 42.0 ± 2.4 | 98.3 ± 5.9 | 
6 | COCC1CN(c2ccc3cc(OCC4CC4)ccc3c2)C(=O)O1 (centres unmarked) | 93.5 | 71.4 ± 4.3 | -4.5 ± 5.9 | 

Now from value to compound, other results behind:

Row | inhibition at 0.1 µM (MAO-A) [%] | SMILES | Inhibitory rate (%) MAO-A (cerebral MAO-A) [%] | Inhibitory rate (%) MAO-B (cerebral MAO-B) [%] | mortality (mice)
7 | 76.6 | COCC1CN(c2ccc3cc(OC(C)=O)ccc3c2)C(=O)O1 (centres unmarked) [OCOCH3, 3-(6-acetyloxy-2-naphthyl)-5-methoxymethyl-2-oxazolidone] | 56.4 ± 7.4 | -3.1 ± 1.8 | 
8 | 98.8 | COCC1CN(c2ccc3cc(OC(C)C)ccc3c2)C(=O)O1 (centres unmarked) [OCH(CH3)2] | 86.8 ± 5.4 | 3.6 ± 5.3 | 
9 | 96.8 | C=CCOc1ccc2cc(N3CC(COC)OC3=O)ccc2c1 (centres unmarked) [OCH2 CHCH2] |  |  | 
